# Test results: patent US20140193831A1, “SEED TRAIT PREDICTION BY ACTIVITY-BASED PROTEIN PROFILING” (GAUTIER SEMENCES, priority 2011, published 2014)
# What was measured:
# [1] = system: seed proteins; experiment: ABPP labelling of a tomato seed extract with four fluorescent probes in parallel (FIG. 2); format: biochemical; details: plant seed extract, 2 μM probe, buffers NaOAc pH 5.5 or Tris pH 7.6 with 1 mM DTT
# [2] = system: diagnostic marker 4; experiment: Single seed-ABPP of unprimed and primed tomato seeds with MV151 (FIG. 17); format: biochemical; details: 4 hours, Tris pH 7.5
# Source text: A: Structure of MV151 (see also FIG. 7). This probe consists of a vinylsulfonate (VS) reactive groups, a leucine tripeptide binding group as linker, and a fluorescence bodipy reporter tag (left grey circle) (MV151: Verdoes et al., (2006) Chem. Biol. 13: 1217-1226). B: MV151 was used for detection of a diagnostic marker for primed seeds in tomato. […] Proteins were separated on 14% protein gels and analyzed by scanning for fluorescent proteins (ex 532 nm/em 575 nm) and stained with coomassie. […] This is an Example of successful identification of primed seeds by ABPP of the present invention without need for germination of the seeds.
compound,measurement,setting,value
COc1ccc(C2=[N+]3C(=Cc4c(C)c(CCC(=O)NCCCCCC(=O)NCCCCCC(=O)NCCCCCC(=O)N[C@@H](CC(C)C)C(=O)N[C@@H](CC(C)C)C(=O)N[C@H](/C=C/S(C)(=O)=O)CC(C)C)c(C)n4[B-]3(F)F)C=C2)cc1 [MV151],labelling of seed proteins on fluorescence gel,[1],Robust labelling
same,seeds in which diagnostic marker 4 is detected,"[2]; primed A1 seeds, 14 of 14, 2 μM probe",100%
same,seeds in which diagnostic marker 4 is detected,"[2]; unprimed A1 seeds, 4 of 14, 2 μM probe",36%
